Data on eight compounds can be found in patent US6841548B2, “Pharmaceutical preparations containing estra-1,3,5(10)-triene derivatives” (Schering AG, priority 1994, dated 2005).

What all share (assay type): in vivo, rat
Series [1] deals with ovariectomated rats. The series can be described thus: Oral estrogenic effects: uterus weights in ovariectomated rats. From the text: (§1) The laboratory animals, adult female rats (breeder: HSD/WIN:WU) were ovariectomated on day 14. Treatment started two weeks later by a single oral application per day of the respective test substance. The dosages given for esters refer to the steroid portion of the substances. The tests were made in three groups (A, B, C) at various points in time. This is why there is a deviation in control group values. The tests of series A, B, and C can therefore be compared among each other if the values for the respective control groups are taken into account.
(§2) The procedure of allocating animals to groups was randomized. The experiment was carried out as a block test. The animals were weighed at the beginning and at the end of the experiment.
(§3) The start of treatment was defined as day 1 (=d1), treatment was finished on day 7 (=d7); the animals were killed on day 8, various organs (uteri, adrenal glands, liver) were removed, weighed and deep-frozen (−196° C.) for further examination.

The test system of series [2] is ovariectomated rats. The series can be described thus: Oral estrogenic effects: weights of adrenal glands in ovariectomated rats.
Description: as §1, §2, §3

For series [3], the system named is ovariectomated rats. The series can be described thus: Hepatic parameters: serum angiotensin I, modified RIA for renin activity. On the set-up: Angiotensin I: unit not given here. As to conditions: for Angiotensin I: Experiment A.
Description: as §1, §2, §3
(§4) Blood was taken from the retrobulbar plexus under ether anaesthesia prior to treatment (d0), and on (d4) and (d8). IGF1, angiotensin I, cholesterol and HDL cholesterol were determined in the serum obtained.
angiotensin: modified RIA for renin activity by Sorin Co.

Series [4] concerns ovariectomated rats. The series can be described thus: Hepatic parameters: HDL cholesterol levels in serum, enzymatic test. To be noted: Experiment A.
Description: as §1, §2, §3, §4
(§5) cholesterol/HDL: enzymatic tests, photometric determination, reagents by Dr Bruno Lange GmbH.

Series [5] deals with ovariectomated rats. Nature of the series: Oral estrogen treatment: serum IGF1 (somatomedin C), RIA. To be noted: Experiment A. On the set-up: unit not given here.
Description: as §1, §2, §3, §4
IGF1: RIA by bioMérieux Co.;

Series [6] concerns ovariectomated rats. Nature of the series: Hepatic parameters: total cholesterol levels in serum, enzymatic test. To be noted: all doses. As for the experimental part: The laboratory animals, adult female rats (breeder: HSD/WIN:WU) were ovariectomated on day 14. Treatment started two weeks later by a single oral application per day of the respective test substance. The dosages given for esters refer to the steroid portion of the substances. The tests were made in three groups (A, B, C) at various points in time.
as §2, §3, §4, §5

[7] abbreviates: Experiment B, 10 μg/animal/day p.o. d1-d7.
Setting [8] is: day 4, 0.1 μg/animal/day p.o. d1-d7.
Setting [9] is: day 4, 1 μg/animal/day p.o. d1-d7.
Where [10] appears, read: day 4, 10 μg/animal/day p.o. d1-d7.
[11] abbreviates: day 4, 100 μg/animal/day p.o. d1-d7.
The mark [12] stands for this setting: day 8, 0.1 μg/animal/day p.o. d1-d7.
The mark [13] stands for this setting: day 8, 1 μg/animal/day p.o. d1-d7.
[14] abbreviates: day 8, 10 μg/animal/day p.o. d1-d7.
Where [15] appears, read: day 8, 100 μg/animal/day p.o. d1-d7.
[16] abbreviates: Experiment A, 0.1 μg/animal/day p.o. d1-d7.
Where [17] appears, read: Experiment A, 1 μg/animal/day p.o. d1-d7.
[18] abbreviates: Experiment A, 10 μg/animal/day p.o. d1-d7.
The mark [19] stands for this setting: Experiment A, 100 μg/animal/day p.o. d1-d7.
The mark [20] stands for this setting: Experiment C, 10 μg/animal/day p.o. d1-d7.

For `C[C@]12CC[C@@H]3c4ccc(O)cc4CC[C@H]3[C@@H]1CCC2=O` [Example E1, estrone], the “Uterus weights (mean value)” value in series [1] (setting [7]) is on record as 170.63 mg. Also, the “Weights of adrenal glands (mean value)” value in series [2] (setting [7]) amounted to 49.8 mg.

With `C[C@]12CC[C@@H]3c4ccc(O)cc4CC[C@H]3[C@@H]1CC[C@@H]2O` [Example E2, estradiol], the “Angiotensin I” value in series [3] (setting [8]) is reported as 376.2 ± 48.3; in series [3] (setting [9]) it was 359.8 ± 53.4; in series [3] (setting [10]), 412.8 ± 66.6; in series [3] (setting [11]) it was 497.7 ± 69.0; in series [3] (setting [12]), 449.5 ± 55.1; in series [3] (setting [13]), 392.9 ± 32.0. Further, the “Angiotensin I” value came out at 335.5 ± 24.9 in series [3] (setting [14]) and 464.3 ± 16.7 in series [3] (setting [15]). Besides, the “Effect on angiotensin I (AI) values, in words” value in series [3] (at any dose throughout the experiment) is “no recognizable effect”. The “Influence on the angiotensin I level, summary in words” value in series [3] (dose-action relationships on days 4 and 8) was “at best has marginal stimulating influence”. For the same compound, the “Uterus weights (mean value)” value in series [1] (setting [16]) is 123.3 mg; in series [1] (setting [17]) it was 128.9 mg; in series [1] (setting [18]), 130.7 mg; in series [1] (setting [19]), 285.4 mg; in series [1] (setting [7]), 182.3 mg. Moreover, the “Weights of adrenal glands (mean value)” value in series [2] (setting [16]) is on record as 49.3 mg; in series [2] (setting [17]), 57.9 mg; in series [2] (setting [18]), 61.6 mg; in series [2] (setting [19]) it was 54.4 mg; in series [2] (setting [7]), 54.4 mg. Moreover, the “HDL cholesterol levels (mean value ± standard deviation)” value in series [4] (setting [8]) was 49.1 ± 7.8 mg/dL; in series [4] (setting [9]), 50.9 ± 6.1 mg/dL; in series [4] (setting [10]) it was 55.0 ± 6.9 mg/dL; in series [4] (setting [11]), 43.7 ± 7.6 mg/dL; in series [4] (setting [12]), 51.0 ± 4.6 mg/dL; in series [4] (setting [13]) it was 52.3 ± 4.1 mg/dL. Besides, the “HDL cholesterol levels (mean value ± standard deviation)” value in series [4] (setting [14]) amounted to 51.5 ± 3.9 mg/dL; in series [4] (setting [15]), 46.0 ± 9.2 mg/dL. The “IGF1 (= somatomedin C)” value was 717.4 ± 80.8 in series [5] (100 μg/animal/day p.o. d1-d7, d 0 (prior to treatment)); 623.6 ± 100.0 in series [5] (100 μg/animal/day p.o. d1-d7, d 4); 601.1 ± 108.8 in series [5] (100 μg/animal/day p.o. d1-d7, d 8). Also, in series [6], the “Effect on cholesterol levels in the blood (total and HDL), in words” value is recorded as “did not reduce cholesterol levels in the blood”.

Consider `C[C@]12CC[C@@H]3c4ccc(O)cc4CC[C@H]3[C@@H]1C[C@@H](O)[C@@H]2O` [Example E3, estratriol], for which, in series [1] (setting [20]), the “Uterus weights (mean value)” value is 301.94 mg. Further, in series [2] (setting [20]), the “Weights of adrenal glands (mean value)” value stood at 52.2 mg.

As for `C#CC1(O)CCC2C3CCc4cc(OS(=O)(=O)N5CCCC5)ccc4C3CCC21C` (stereo not drawn) [J 272, 17β-Hydroxy-19-nor-17α-pregna-1,3,5(10)-trien-20-in-3-yl N,N-pyrrolidinosulfonate], the “Uterus weights (mean value)” value in series [1] (setting [7]) amounted to 620.7 mg. The “Weights of adrenal glands (mean value)” value in series [2] (setting [7]) was determined as 57.5 mg.

Consider `C#CC1(O)CCC2C3CCc4cc(OS(=O)(=O)N(C)C)ccc4C3CCC21C` (stereo not drawn) [J 665, 17β-Hydroxy-19-nor-17α-pregna-1,3,5(10)-trien-20-in-3-yl N,N-dimethyl-sulfamate], for which the “Uterus weights (mean value)” value in series [1] (setting [7]) came to 639.48 mg. Moreover, in series [2] (setting [7]), the “Weights of adrenal glands (mean value)” value came out at 58.0 mg.

With `CCN(CC)S(=O)(=O)Oc1ccc2c(c1)CC[C@@H]1[C@@H]2CC[C@]2(C)C(=O)CC[C@@H]12` [J 804, Estra-1,3,5(10)-trien-17-on-3-yl N,N-diethyl-sulfamate], the “Uterus weights (mean value)” value in series [1] (setting [7]) is listed as 166.0 mg. Also, in series [2] (setting [7]), the “Weights of adrenal glands (mean value)” value is given as 53.9 mg.

On to `CN(C)S(=O)(=O)Oc1ccc2c(c1)CC[C@@H]1[C@@H]2CC[C@]2(C)[C@@H](O)C[C@@H]3C[C@]312` [J 982, 17β-Hydroxy-14α,15α-methylen-estra-1,3,5(10)-trien-3-yl N,N-dimethyl-sulfamate], for which the “Uterus weights (mean value)” value in series [1] (setting [7]) is 193.4 mg. Moreover, the “Weights of adrenal glands (mean value)” value in series [2] (setting [7]) is 55.3 mg.

Take `CCN(CC)S(=O)(=O)Oc1ccc2c(c1)CC[C@@H]1[C@@H]2CC[C@]2(C)[C@@H](O)C[C@@H]3C[C@]312` [J 983, 17β-Hydroxy-14α,15α-methylen-estra-1,3,5(10)-trien-3-yl N,N-diethyl-sulfamate]: the “Uterus weights (mean value)” value in series [1] (setting [7]) stood at 348.6 mg. Also, in series [2] (setting [7]), the “Weights of adrenal glands (mean value)” value is 53.9 mg.
